What was measured:
[1] = target: T1, wild-type nAChR α7 receptors (Homo sapiens, UniProt P36544); experiment: Positive modulation of nAChR α7 currents in Xenopus laevis oocytes, two-electrode voltage clamp; type: cell-based; conditions: nAChR α7 expressed in Xenopus laevis oocytes, clamped at −60 mV, 100 μM acetylcholine; for Emax: (test-control)/control×100%, read-out: calculated EC50 Imax (maximal modulation of the control response); for EC50: test compound 0.01-31.6 μM, read-out: calculated EC50 (positive modulation of acetylcholine-induced current)
T1 construct: expressed in transfected cells; host or cells: Xenopus laevis oocytes
T1 sequence (P36544 23-502): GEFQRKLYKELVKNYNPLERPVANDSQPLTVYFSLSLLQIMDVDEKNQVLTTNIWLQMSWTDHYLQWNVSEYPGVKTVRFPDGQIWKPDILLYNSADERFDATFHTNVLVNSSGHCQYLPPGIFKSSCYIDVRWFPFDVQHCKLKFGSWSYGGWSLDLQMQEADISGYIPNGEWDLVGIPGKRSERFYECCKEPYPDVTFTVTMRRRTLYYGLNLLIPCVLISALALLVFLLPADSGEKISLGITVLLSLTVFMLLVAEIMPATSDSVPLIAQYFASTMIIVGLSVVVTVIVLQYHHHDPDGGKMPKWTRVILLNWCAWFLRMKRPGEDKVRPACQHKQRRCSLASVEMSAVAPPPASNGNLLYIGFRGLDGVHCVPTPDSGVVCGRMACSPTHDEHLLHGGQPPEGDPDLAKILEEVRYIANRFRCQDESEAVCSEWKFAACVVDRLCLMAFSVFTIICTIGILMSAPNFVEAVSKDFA
Method: In this example the positive modulation of wild-type nAChR α7 receptors by Compounds 4 and 5, representative of the invention, was determined using nAChR α7 receptors heterologously expressed in Xenopus laevis oocytes.
The electrical current through the nAChR α7 channel was measured using conventional two-electrode voltage clamp and nAChR α7 currents were activated by applying pulses of agonist-containing solution onto the nAChR α7 expressing oocyte.
In brief, the oocytes were placed in a recording chambers and continuously super-fused with an Oocyte Ringer (OR) solution containing 90 mM NaCl, 2.5 mM KCl, 2.5 mM CaCl2, 1 mM MgCl2 and 5 mM HEPES (pH adjusted to 7.4). The oocytes were clamped at −60 mV and currents were induced by applying 20 s pulses of 100 μM acetylcholine dissolved in OR. The intervals between the acetylcholine applications were 5 minutes, during which the oocytes were washed with OR. The first three applications were control applications to insure a constant response level of 100 μM acetylcholine. For the subsequent test applications, increasing concentrations (0.01-31.6 μM) of the test compound were applied 30 s before and during the acetylcholine (100 μM) application, which caused a robust increase in the acetylcholine-induced current amplitude.
The positive modulation in the presence of Compound 4 was calculated as (test-control)/control×100% and the concentration response curve for this positive modulation was fitted to the sigmoidal logistic equation: I=Imax/(1+(EC50/[compound])^n), where Imax represents the maximal modulation of the control response, EC50 is the concentration causing a half maximal response, and n is the slope coefficient.

| Emax [1] [%] | EC50 [1] [µM] | melting point [°C] | Structure (SMILES) |
| --- | --- | --- | --- |
| 283 | 3.7 |  | COc1ccc(-c2cc(C(=O)Nc3cccc(F)n3)c3ccccc3n2)cc1 [Compound 4, 2-(4-Methoxy-phenyl)-quinoline-4-carboxylic acid (6-fluoro-pyridin-2-yl)-amide] |
| 197 | 1.2 |  | COc1ccc(-c2cc(C(=O)Nc3cccc(F)n3)c3ccccc3n2)cc1OC [Compound 5, 2-(3,4-Dimethoxy-phenyl)-quinoline-4-carboxylic acid (6-fluoro-pyridin-2-yl)-amide] |
|  |  | 182.4 to 183.7 | Cc1ccc(NC(=O)c2cc(-c3ccc(Br)cc3)nc3ccccc23)nc1 [Compound 7, 2-(4-Bromo-phenyl)-quinoline-4-carboxylic acid (5-methyl-pyridin-2-yl)-amide] |
|  |  | 201.8 to 202.8 | COc1ccc(-c2cc(C(=O)Nc3cccc(F)n3)c3cccc(F)c3n2)cc1 [Compound 8, 8-Fluoro-2-(4-methoxy-phenyl)-quinoline-4-carboxylic acid (6-fluoro-pyridin-2-yl)-amide] |
|  |  | 254 to 256 | O=C(Nc1cccc(F)n1)c1cc(-c2ccc(O)cc2)nc2c(F)cccc12 [Compound 9, 8-Fluoro-2-(4-hydroxy-phenyl)-quinoline-4-carboxylic acid (6-fluoro-pyridin-2-yl)-amide] |
|  |  | 161.2 to 162.9 | COc1ccc(-c2cc(C(=O)Nc3cccc(F)n3)c3cc(F)ccc3n2)cc1 [Compound 10, 6-Fluoro-2-(4-methoxy-phenyl)-quinoline-4-carboxylic acid (6-fluoro-pyridin-2-yl)-amide] |
|  |  | 209.9 to 210.6 | O=C(Nc1cccc(F)n1)c1cc(-c2ccc3c(c2)OCCO3)nc2ccccc12 [Compound 13, 2-(2,3-Dihydro-benzo[1,4]dioxin-6-yl)-quinoline-4-carboxylic acid (6-fluoro-pyridin-2-yl)-amide] |

From patent US20110207773A1, “NOVEL PHENYL-QUINOLINE-CARBOXYLIC ACID PYRIDINE DERIVATIVES USEFUL AS MODULATORS OF NICOTINIC ACETYLCHOLINE RECEPTORS” (NEUROSEARCH A/S, priority 2008, published 2011)
